Laboratory results taken from ChEMBL document CHEMBL1156213, “Imidazo[2,1-b]thiazoles: multitargeted inhibitors of both the insulin-like growth factor receptor and members of the epidermal growth factor family of receptor tyrosine kinases” (Bioorg Med Chem Lett, 2010).
pIC50: −log10 of the molar value.

Assays:
[1] = biological target: T1, Insulin-like growth factor 1 receptor (Homo sapiens, UniProt P08069); assay: Inhibition of human recombinant IGF1R expressed in Sf21 cells by time resolved fluorescence assay
T1 sequence (P08069 31-736 limits assumed): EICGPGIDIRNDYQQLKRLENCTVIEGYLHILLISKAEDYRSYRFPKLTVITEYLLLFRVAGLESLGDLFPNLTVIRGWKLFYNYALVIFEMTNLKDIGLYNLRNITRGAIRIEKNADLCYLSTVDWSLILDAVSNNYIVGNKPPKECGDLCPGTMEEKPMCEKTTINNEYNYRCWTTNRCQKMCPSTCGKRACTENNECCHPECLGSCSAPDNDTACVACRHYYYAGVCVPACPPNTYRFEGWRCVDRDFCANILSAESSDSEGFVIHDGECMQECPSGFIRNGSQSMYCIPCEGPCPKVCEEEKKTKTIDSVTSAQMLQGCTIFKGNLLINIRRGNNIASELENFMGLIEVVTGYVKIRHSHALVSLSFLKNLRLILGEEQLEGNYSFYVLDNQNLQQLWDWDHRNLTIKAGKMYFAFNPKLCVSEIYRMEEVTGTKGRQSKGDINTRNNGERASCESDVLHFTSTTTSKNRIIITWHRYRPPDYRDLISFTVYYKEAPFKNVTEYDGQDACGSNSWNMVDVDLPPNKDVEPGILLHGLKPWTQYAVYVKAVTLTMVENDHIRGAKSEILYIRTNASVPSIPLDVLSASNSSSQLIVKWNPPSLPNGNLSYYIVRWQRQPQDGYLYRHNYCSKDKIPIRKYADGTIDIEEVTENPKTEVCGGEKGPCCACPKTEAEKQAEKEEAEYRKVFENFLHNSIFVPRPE
T1 sequence (P08069 741-1367 limits assumed): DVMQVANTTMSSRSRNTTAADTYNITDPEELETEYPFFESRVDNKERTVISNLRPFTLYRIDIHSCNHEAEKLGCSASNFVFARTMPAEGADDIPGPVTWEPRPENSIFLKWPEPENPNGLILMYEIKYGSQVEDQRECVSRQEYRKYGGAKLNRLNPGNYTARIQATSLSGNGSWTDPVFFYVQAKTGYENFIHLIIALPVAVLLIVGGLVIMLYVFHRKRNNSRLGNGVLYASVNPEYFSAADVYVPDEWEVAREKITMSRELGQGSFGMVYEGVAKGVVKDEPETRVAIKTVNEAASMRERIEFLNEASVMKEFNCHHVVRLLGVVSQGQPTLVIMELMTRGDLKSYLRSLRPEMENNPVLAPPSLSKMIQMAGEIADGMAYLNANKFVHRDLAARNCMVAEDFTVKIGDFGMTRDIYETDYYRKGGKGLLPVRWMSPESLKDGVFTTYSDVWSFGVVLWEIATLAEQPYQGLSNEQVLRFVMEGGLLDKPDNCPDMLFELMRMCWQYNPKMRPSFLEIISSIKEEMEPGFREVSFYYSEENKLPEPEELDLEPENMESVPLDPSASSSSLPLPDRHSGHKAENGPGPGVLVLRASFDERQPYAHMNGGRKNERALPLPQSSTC

[2] = biological target: T2, Receptor tyrosine-protein kinase erbB-2 (Homo sapiens, UniProt P04626); assay: Inhibition of ErbB2 by time resolved fluorescence assay
T2 sequence (P04626 whole entry): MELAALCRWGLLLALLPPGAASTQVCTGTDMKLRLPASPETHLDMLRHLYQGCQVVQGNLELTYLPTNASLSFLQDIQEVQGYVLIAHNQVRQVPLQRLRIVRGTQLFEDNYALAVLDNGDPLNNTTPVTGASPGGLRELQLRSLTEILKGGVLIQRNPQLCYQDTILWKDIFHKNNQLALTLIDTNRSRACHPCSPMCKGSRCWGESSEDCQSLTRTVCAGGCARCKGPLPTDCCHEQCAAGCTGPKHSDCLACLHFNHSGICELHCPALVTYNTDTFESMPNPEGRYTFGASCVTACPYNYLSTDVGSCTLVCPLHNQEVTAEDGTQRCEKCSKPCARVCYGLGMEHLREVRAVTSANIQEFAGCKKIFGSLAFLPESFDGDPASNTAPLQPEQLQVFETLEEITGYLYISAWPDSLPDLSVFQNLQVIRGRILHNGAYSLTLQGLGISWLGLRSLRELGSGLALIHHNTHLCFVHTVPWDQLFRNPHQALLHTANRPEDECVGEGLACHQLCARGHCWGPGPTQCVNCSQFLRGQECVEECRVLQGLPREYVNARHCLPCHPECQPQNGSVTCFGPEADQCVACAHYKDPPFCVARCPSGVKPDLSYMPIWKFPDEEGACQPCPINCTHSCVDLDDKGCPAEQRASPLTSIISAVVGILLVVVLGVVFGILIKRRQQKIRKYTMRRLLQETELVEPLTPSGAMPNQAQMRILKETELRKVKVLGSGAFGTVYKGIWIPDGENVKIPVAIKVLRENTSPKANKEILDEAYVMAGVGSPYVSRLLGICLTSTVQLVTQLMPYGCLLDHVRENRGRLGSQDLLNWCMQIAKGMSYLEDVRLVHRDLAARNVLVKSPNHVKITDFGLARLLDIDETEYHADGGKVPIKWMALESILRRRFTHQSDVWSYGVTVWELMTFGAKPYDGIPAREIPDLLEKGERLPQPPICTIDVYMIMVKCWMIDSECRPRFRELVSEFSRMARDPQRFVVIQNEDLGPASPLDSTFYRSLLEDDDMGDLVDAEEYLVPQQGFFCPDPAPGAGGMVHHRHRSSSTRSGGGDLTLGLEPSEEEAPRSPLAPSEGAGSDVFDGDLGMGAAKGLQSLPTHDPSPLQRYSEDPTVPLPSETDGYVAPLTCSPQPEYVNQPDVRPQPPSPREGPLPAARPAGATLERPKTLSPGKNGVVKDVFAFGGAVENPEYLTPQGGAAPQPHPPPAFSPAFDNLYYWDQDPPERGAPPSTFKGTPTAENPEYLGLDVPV

[3] = biological target: T1, Insulin-like growth factor 1 receptor; assay: Inhibition of IGF1R intracellular phosphorylation in human A431 cells by ELISA; type: cell-based, A-431
[4] = biological target: T2, Receptor tyrosine-protein kinase erbB-2; assay: Inhibition of ErbB2 intracellular phosphorylation in human N87 cells by ELISA
[5] = biological target: Epidermal growth factor receptor (Homo sapiens, UniProt P00533)
Chain of Epidermal growth factor receptor (Homo sapiens, UniProt P00533) (P00533 whole entry): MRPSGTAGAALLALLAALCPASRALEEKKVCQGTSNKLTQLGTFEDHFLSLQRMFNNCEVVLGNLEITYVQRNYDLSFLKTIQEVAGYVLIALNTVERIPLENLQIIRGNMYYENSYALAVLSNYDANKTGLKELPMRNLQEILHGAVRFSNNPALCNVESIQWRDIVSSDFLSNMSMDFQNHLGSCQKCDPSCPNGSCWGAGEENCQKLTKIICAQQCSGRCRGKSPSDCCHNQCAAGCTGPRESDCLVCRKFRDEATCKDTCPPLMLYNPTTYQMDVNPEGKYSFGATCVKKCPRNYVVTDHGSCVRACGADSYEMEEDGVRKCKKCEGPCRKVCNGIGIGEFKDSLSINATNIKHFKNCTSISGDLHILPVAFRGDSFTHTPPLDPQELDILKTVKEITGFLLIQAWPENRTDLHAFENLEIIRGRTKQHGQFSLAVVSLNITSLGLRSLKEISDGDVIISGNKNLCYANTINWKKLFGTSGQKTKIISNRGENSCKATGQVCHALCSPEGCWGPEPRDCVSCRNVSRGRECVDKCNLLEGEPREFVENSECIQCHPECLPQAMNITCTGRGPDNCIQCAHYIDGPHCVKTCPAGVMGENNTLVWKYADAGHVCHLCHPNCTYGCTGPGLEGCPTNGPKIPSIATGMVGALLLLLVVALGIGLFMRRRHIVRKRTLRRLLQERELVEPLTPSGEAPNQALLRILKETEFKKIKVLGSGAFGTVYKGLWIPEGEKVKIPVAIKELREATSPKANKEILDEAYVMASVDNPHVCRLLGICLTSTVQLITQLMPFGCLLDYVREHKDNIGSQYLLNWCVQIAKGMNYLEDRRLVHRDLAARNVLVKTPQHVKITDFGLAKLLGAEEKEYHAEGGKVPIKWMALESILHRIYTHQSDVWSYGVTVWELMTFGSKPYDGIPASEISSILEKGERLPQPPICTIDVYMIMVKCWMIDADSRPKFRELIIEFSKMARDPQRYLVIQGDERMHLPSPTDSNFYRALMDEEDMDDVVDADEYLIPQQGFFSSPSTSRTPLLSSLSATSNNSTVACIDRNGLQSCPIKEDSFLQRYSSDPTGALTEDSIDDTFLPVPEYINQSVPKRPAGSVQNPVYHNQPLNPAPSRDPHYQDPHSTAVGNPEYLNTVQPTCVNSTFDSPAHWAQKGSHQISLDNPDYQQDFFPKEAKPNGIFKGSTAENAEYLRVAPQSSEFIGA
Description: Inhibition of EGFR intracellular phosphorylation in human A431 cells by ELISA

[6] = biological target: Epidermal growth factor receptor (Homo sapiens, UniProt P00533, L858R)
Chain of Epidermal growth factor receptor (Homo sapiens, UniProt P00533, L858R) (P00533 25-1210 L858R limits assumed): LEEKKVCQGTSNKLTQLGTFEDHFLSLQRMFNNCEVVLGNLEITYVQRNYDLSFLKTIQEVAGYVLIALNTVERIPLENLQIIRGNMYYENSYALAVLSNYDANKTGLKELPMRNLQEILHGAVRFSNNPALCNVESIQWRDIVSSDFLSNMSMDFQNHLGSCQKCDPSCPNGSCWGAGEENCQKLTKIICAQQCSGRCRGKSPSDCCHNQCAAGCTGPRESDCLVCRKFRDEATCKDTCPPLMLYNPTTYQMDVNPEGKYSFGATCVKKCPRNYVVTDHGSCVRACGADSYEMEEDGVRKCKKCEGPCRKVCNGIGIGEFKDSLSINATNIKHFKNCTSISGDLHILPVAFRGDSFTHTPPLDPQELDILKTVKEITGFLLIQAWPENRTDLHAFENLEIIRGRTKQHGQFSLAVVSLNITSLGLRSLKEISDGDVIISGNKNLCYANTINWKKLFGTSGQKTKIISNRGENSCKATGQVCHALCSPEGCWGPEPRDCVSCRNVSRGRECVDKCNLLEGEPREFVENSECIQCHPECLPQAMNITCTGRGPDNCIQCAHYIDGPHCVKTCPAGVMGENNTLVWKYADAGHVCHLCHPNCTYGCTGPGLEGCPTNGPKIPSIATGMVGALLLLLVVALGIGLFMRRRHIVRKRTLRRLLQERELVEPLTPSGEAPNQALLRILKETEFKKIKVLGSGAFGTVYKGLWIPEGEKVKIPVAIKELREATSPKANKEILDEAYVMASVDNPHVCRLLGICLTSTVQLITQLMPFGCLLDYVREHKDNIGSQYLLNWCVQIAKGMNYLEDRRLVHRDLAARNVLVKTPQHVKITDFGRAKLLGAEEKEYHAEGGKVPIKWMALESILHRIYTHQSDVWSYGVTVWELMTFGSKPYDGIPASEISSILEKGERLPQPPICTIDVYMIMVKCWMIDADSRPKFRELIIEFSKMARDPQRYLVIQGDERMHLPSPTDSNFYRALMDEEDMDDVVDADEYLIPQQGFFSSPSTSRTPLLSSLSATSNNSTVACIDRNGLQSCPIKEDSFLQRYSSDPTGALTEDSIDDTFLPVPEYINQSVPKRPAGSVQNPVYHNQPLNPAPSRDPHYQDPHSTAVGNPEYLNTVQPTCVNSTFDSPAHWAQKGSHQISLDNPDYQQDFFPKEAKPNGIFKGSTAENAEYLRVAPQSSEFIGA

[7] = Inhibition of CK2
[8] = biological target: T3, Serine/threonine-protein kinase Sgk1 (Homo sapiens, UniProt O00141); assay: Inhibition of SGK
T3 sequence (O00141 whole entry): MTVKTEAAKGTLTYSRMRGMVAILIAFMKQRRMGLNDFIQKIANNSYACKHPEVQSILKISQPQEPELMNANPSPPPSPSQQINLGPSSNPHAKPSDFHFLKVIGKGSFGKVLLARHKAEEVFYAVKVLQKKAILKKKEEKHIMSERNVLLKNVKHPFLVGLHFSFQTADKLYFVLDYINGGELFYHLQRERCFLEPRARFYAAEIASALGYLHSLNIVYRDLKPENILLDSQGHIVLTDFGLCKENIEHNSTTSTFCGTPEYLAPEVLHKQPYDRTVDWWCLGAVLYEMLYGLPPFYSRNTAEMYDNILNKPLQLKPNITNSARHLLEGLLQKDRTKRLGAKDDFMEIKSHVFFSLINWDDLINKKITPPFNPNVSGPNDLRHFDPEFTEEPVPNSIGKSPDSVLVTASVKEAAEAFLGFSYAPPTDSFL

[9] = biological target: Protein kinase C eta type (Homo sapiens, UniProt P24723); assay: Inhibition of PKCeta
[10] = Inhibition of PKA
[11] = Inhibition of P70S6K
[12] = Inhibition of FGFR
[13] = Inhibition of MAPKAPK

SMILES	pIC50 [1]	pIC50 [2]	pIC50 [6]	further results
CN(C)CCc1ccc(Nc2nccc(-c3c(-c4cccc(NC(=O)c5c(F)cccc5F)c4)nc4sccn34)n2)cc1	6.68	8.37	9.11	pIC50 [3]: 6.48; pIC50 [4]: 7.57; pIC50 [5]: 6.66
O=C(Nc1cccc(-c2nc3sccn3c2-c2ccnc(Nc3cccc(N4CCOCC4)c3)n2)c1)c1c(F)cccc1F	5.42	7.07	8.21	–
CCN1CCN(c2ccc(Nc3nccc(-c4c(-c5cccc(NC(=O)c6c(F)cccc6F)c5)nc5sccn45)n3)cc2)CC1	6.64	7.85	9.02	pIC50 [3]: 6.70; pIC50 [4]: 7.16; pIC50 [5]: 7.30
O=C(Cc1ccccc1)Nc1cccc(-c2nc3sccn3c2-c2ccnc(Nc3ccc4c(c3)CCNC4)n2)c1	7.57	7.26	8.19	pIC50 [3]: 6.74; pIC50 [4]: 6.92; pIC50 [5]: 6.00
O=C(Cc1ccccc1)Nc1cccc(-c2nc3sccn3c2-c2ccnc(Nc3cccc(N4CCOCC4)c3)n2)c1	–	–	–	pIC50 [7]: < 6.00; pIC50 [8]: < 6.00; pIC50 [9]: < 6.00; pIC50 [10]: < 6.00; pIC50 [11]: < 6.00; pIC50 [12]: 6.05; pIC50 [13]: < 6.00
O=C(Nc1cccc(-c2nc3sccn3c2-c2ccnc(Nc3ccc(N4CCOCC4)cc3)n2)c1)c1c(F)cccc1F	5.89	7.07	8.72	–
CN(C)CCc1cccc(Nc2nccc(-c3c(-c4cccc(NC(=O)Cc5ccccc5)c4)nc4sccn34)n2)c1	–	6.82	7.62	–
O=C(Nc1cccc(-c2nc3sccn3c2-c2ccnc(Nc3ccccc3)n2)c1)c1ccccc1	< 4.90	8.20	7.26	–
O=C(Nc1cccc(-c2nc3sccn3c2-c2ccnc(Nc3ccc(N4CCOCC4)cc3)n2)c1)c1ccccc1	5.82	8.32	8.10	–
O=C(CC1CCCCC1)Nc1cccc(-c2nc3sccn3c2-c2ccnc(Nc3ccc(N4CCOCC4)cc3)n2)c1	5.96	5.85	6.06	–
CCN1CCN(c2ccc(Nc3nccc(-c4c(-c5cccc(NC(=O)Cc6ccccc6)c5)nc5sccn45)n3)cc2)CC1	7.28	6.77	–	pIC50 [3]: 7.39; pIC50 [4]: 6.51
O=C(Nc1ccccc1)Nc1cccc(-c2nc3sccn3c2-c2ccnc(Nc3ccc(N4CCOCC4)cc3)n2)c1	6.23	6.77	7.00	–
O=C(Nc1cccc(-c2nc3sccn3c2-c2ccnc(Nc3ccc(N4CCOCC4)cc3)n2)c1)Oc1ccccc1	6.35	6.77	6.72	–
O=C(Nc1cccc(-c2nc3sccn3c2-c2ccncc2)c1)c1ccccc1Cl	< 4.90	6.62	6.62	–
O=C(CC1CCCC1)Nc1cccc(-c2nc3sccn3c2-c2ccnc(Nc3ccc(N4CCOCC4)cc3)n2)c1	6.24	5.89	6.18	–
CN1CCc2cc(Nc3nccc(-c4c(-c5cccc(NC(=O)Cc6ccccc6)c5)nc5sccn45)n3)ccc2C1	7.09	6.80	7.24	–
O=[N+]([O-])c1cccc(-c2nc3sccn3c2-c2ccnc(Nc3ccccc3)n2)c1	< 4.90	5.22	–	–
Nc1nc2ccc(-c3c(-c4cccc(NC(=O)c5ccccc5Cl)c4)nc4sccn34)cc2[nH]1	< 4.90	< 4.90	< 4.90	–
O=C(Nc1cccc(-c2nc3sccn3c2-c2ccnc(Nc3ccccc3)n2)c1)c1ccccc1Cl	< 4.90	7.46	7.08	–
O=C(Nc1cccc(-c2nc3sccn3c2-c2ccnc(Nc3ccc4c(c3)CCNC4)n2)c1)c1c(F)cccc1F	7.00	8.14	8.64	–
